The NIST ThermoML archive (doi:10.1016/j.fluid.2010.10.028)

Assay: xn = mol fraction of the nth substance listed
Settings: Liquid, Vibrating tube method

CC(C)=O [acetone] + CCCCCCC
Settings	mass density [kg/m3]
357.56 K, 109800 kPa, x1 = 0.492	744.86
357.56 K, 109860 kPa, x1 = 0.611	755.29
357.56 K, 114650 kPa, x1 = 0.4	797.46
357.56 K, 114650 kPa, x1 = 0.8992	797.46
357.56 K, 114760 kPa, x1 = 0.492	747.47
357.56 K, 114840 kPa, x1 = 0.801	781.49
357.56 K, 114860 kPa, x1 = 0.611	758
357.56 K, 119620 kPa, x1 = 0.4	800.25
357.56 K, 119620 kPa, x1 = 0.8992	800.25
357.56 K, 119840 kPa, x1 = 0.611	760.62
357.56 K, 119850 kPa, x1 = 0.492	750.09
357.56 K, 124590 kPa, x1 = 0.4	802.96
357.56 K, 124590 kPa, x1 = 0.8992	802.96
357.56 K, 124850 kPa, x1 = 0.492	752.62
357.56 K, 124850 kPa, x1 = 0.611	763.18
357.56 K, 124850 kPa, x1 = 0.801	786.88
357.56 K, 129540 kPa, x1 = 0.4	805.62
357.56 K, 129540 kPa, x1 = 0.8992	805.62
357.56 K, 129840 kPa, x1 = 0.492	755.04
357.56 K, 129850 kPa, x1 = 0.611	765.68
357.57 K, 19850 kPa, x1 = 0.801	705.47
357.57 K, 24850 kPa, x1 = 0.801	711.56
357.57 K, 29850 kPa, x1 = 0.801	717.2
357.57 K, 39860 kPa, x1 = 0.801	727.56
357.57 K, 44860 kPa, x1 = 0.801	732.3
357.57 K, 49830 kPa, x1 = 0.801	736.79
357.57 K, 54840 kPa, x1 = 0.801	741.09
357.57 K, 79870 kPa, x1 = 0.801	760
357.57 K, 109760 kPa, x1 = 0.801	778.61
357.57 K, 119850 kPa, x1 = 0.801	784.21
357.57 K, 129840 kPa, x1 = 0.801	789.47
367.47 K, 1110 kPa, x1 = 0.7024	653.24
367.47 K, 4830 kPa, x1 = 0.7024	660.5
367.47 K, 9820 kPa, x1 = 0.7024	669.16
367.47 K, 14810 kPa, x1 = 0.7024	676.86
367.47 K, 19800 kPa, x1 = 0.7024	683.87
367.47 K, 24870 kPa, x1 = 0.7024	690.44
367.47 K, 29900 kPa, x1 = 0.7024	696.42
367.47 K, 29980 kPa, x1 = 0.4	723.61
367.47 K, 29980 kPa, x1 = 0.8992	723.61
367.47 K, 34870 kPa, x1 = 0.7024	701.98
367.47 K, 39870 kPa, x1 = 0.7024	707.22
367.47 K, 44860 kPa, x1 = 0.7024	712.14
367.47 K, 49850 kPa, x1 = 0.7024	716.78
367.47 K, 54840 kPa, x1 = 0.7024	721.18
367.47 K, 59880 kPa, x1 = 0.4	753.02
367.47 K, 59880 kPa, x1 = 0.8992	753.02
367.47 K, 64830 kPa, x1 = 0.7024	729.41
367.47 K, 69810 kPa, x1 = 0.7024	733.25
367.47 K, 79780 kPa, x1 = 0.7024	740.5
367.47 K, 89740 kPa, x1 = 0.7024	747.21
367.47 K, 94830 kPa, x1 = 0.7024	750.48
367.47 K, 99830 kPa, x1 = 0.7024	753.58
367.47 K, 104830 kPa, x1 = 0.7024	756.58
367.47 K, 109810 kPa, x1 = 0.7024	759.49
367.47 K, 114820 kPa, x1 = 0.7024	762.32
367.47 K, 119810 kPa, x1 = 0.7024	765.08
367.47 K, 124820 kPa, x1 = 0.7024	767.78
367.47 K, 129810 kPa, x1 = 0.7024	770.39
367.48 K, 1150 kPa, x1 = 0.611	644.69
367.48 K, 5040 kPa, x1 = 0.4	687.92
367.48 K, 5040 kPa, x1 = 0.8992	687.92
367.48 K, 9850 kPa, x1 = 0.611	660.49
367.48 K, 10030 kPa, x1 = 0.4	696.45
367.48 K, 10030 kPa, x1 = 0.8992	696.45
367.48 K, 15010 kPa, x1 = 0.4	704.13
367.48 K, 15010 kPa, x1 = 0.8992	704.13
367.48 K, 19860 kPa, x1 = 0.611	675.16
367.48 K, 20000 kPa, x1 = 0.4	711.11
367.48 K, 20000 kPa, x1 = 0.8992	711.11
367.48 K, 24860 kPa, x1 = 0.611	681.55
367.48 K, 25000 kPa, x1 = 0.4	717.58
367.48 K, 25000 kPa, x1 = 0.8992	717.58
367.48 K, 29870 kPa, x1 = 0.611	687.49
367.48 K, 34860 kPa, x1 = 0.611	693
367.48 K, 39940 kPa, x1 = 0.4	734.49
367.48 K, 39940 kPa, x1 = 0.8992	734.49
367.48 K, 44850 kPa, x1 = 0.611	703
367.48 K, 44920 kPa, x1 = 0.4	739.45
367.48 K, 44920 kPa, x1 = 0.8992	739.45
367.48 K, 49910 kPa, x1 = 0.4	744.24
367.48 K, 49910 kPa, x1 = 0.8992	744.24
367.48 K, 49940 kPa, x1 = 0.611	707.7
367.48 K, 54900 kPa, x1 = 0.4	748.72
367.48 K, 54900 kPa, x1 = 0.8992	748.72
367.48 K, 54920 kPa, x1 = 0.611	712.06
367.48 K, 59830 kPa, x1 = 0.7024	725.38
367.48 K, 64860 kPa, x1 = 0.4	757.11
367.48 K, 64860 kPa, x1 = 0.8992	757.11
367.48 K, 64900 kPa, x1 = 0.611	720.16
367.48 K, 69840 kPa, x1 = 0.4	761.04
